System: healthy adult males
Test: Incremental loading exercise test with bicycle
Format: in vivo, human
Protocol: For 25 healthy adult males, 3 dosages of kaempferol-containing cookie-shaped foods (containing 2.5 mg, 10 mg, or 25 mg of kaempferol, respectively) and a placebo cookie-shaped food (kaempferol-free) were used as test foods, and a once-a-day ingestion for consecutive 8 days were repeated four times by the crossover method. 3 hours after a test food ingestion on day 1 (Single ingestion) and on day 8 (Consecutive ingestion), an incremental loading exercise with bicycle was performed while sampling the exhaled gas to determine the oxygen consumption. The Heart rate and the rating of perceived exertion were monitored during exercise. Dynamic/kinetic visual acuity was measured before and after the exercise. Details of each endpoint are given below. Oxygen consumption (VO2) (mL/min/kg) was calculated from the difference between the amount of oxygen in the inhaled gas (atmosphere) and the amount of oxygen in the exhaled gas. When a weight of the pedal approaches a subject's limit during incremental loading exercise with bicycle, a heart rate (HR) is maximized. The increase in heart rate from the resting heart rate to the maximum heart rate was defined as 100% of exercise intensity, and the oxygen consumption (VO2) was plotted at each exercise intensity. That is, for example, an exercise intensity of 50% HR is calculated by the following equation: 100×(x−Resting heart rate)/(Maximum heart rate−Resting heart rate)=50% HR, and the oxygen consumption (VO2) in which the heart rate is the “x” means “oxygen consumption (VO2) at an exercise intensity of 50% HR”. Oxygen consumption efficiency was calculated by the following equation. Oxygen consumption efficiency (VO2/VE)=oxygen consumption/ventilation The oxygen uptake efficiency slope (OUES) was calculated using the ventilation and VO2 every 1 min from the beginning of the incremental loading exercise. Specifically, a graph of linearity was obtained by plotting “logarithmic value of ventilation (VE)” on the horizontal axis and “VO2” on the vertical axis, and the slope of the linear function graph was defined as OUES. For details, see Non-Patent Document 5. Exercise intensity (% HR) and rating of perceived exertion (RPE) at the oxygen consumption (VO2) of 14 mL/min/kg and 24.5 mL/min/kg in incremental loading exercise (the levels of stair climbing and jogging, respectively) were evaluated. The calculation methods for oxygen consumption (VO2) and exercise intensity (% HR) are the same as those described above. The perceived exertion was rated by the subject according to the following table at 1-minute intervals from the beginning of the incremental loading exercise, and the scales rated by each subject were averaged to give the rating of perceived exertion (RPE).

[1] = single and consecutive ingestion, at VO2 of 14 mL/min/kg (stair climbing) and 24.5 mL/min/kg (jogging), compared with no intake of kaempferol
[2] = single and consecutive ingestion, incremental loading exercise, compared with no intake of kaempferol

O=c1c(O)c(-c2ccc(O)cc2)oc2cc(O)cc(O)c12 [kaempferol]
oxygen consumption efficiency (VO2/VE) (single and consecutive ingestion, after initiation of incremental loading exercise, compared with no intake of kaempferol): increased oxygen consumption efficiency
exercise intensity (% HR) at given oxygen consumption [1]: decreased exercise intensity
rating of perceived exertion (RPE) [1]: decreased rating of perceived exertion
maximum exercise load (Pedal Weight (watt)) [2]: increased maximum exercise load
maximum oxygen consumption (VO2peak) [2]: increased maximum oxygen consumption
oxygen uptake efficiency slope (OUES) [2]: increased oxygen uptake efficiency slope
oxygen consumption (VO2) at each exercise intensity (single ingestion (day 1) and consecutive ingestion (day 8), 3 hours after ingestion, exercise intensities 50-100% HR, compared with no intake of kaempferol (placebo)): increased oxygen consumption at all exercise intensities

Source: US20220151276A1, “COMPOSITION CONTAINING PLANT-DERIVED EXTRACT AND/OR PLANT-DERIVED PROCESSED PRODUCT” (OTSUKA PHARMACEUTICAL CO., LTD., priority 2019, published 2022)
